Results taken from patent US11712414B2, “Oral pharmaceutical composition for preventing or treating dry eye syndrome comprising rebamipide or a prodrug thereof” (SAMJIN PHARMACEUTICAL CO., LTD., priority 2013, dated 2023).

Tested on: animal model of dry eye syndrome
Assay: Efficacy analysis of drugs using an animal model of dry eye syndrome (overall, FIGS. 1 to 15)
Assay type: in vivo, C57BL/6 mice
Settings: oral administration, overall statement
Source text: Experimental Example 1: Efficacy Analysis of Drugs Using an Animal Model of Dry Eye Syndrome
<1-1> Construction of an Animal Model of Dry Eye Syndrome
Eight-week old male C57BL/6 mice (Charles River laboratories) were quarantined for one week and divided into several groups of eight animals evenly according to their average body weight and standard deviation.
For experimental groups (administered with Examples […]), dry eye syndrome was induced by subcutaneous injection of scopolamine (2.5 mg/mL, Sigma-Aldrich) for 10 days with exposure to air draft (25-40% relative humidity) for 18 hours per day. Then, mice were orally administered with the suspensions of Examples 1 to 29, twice a day for total 10 days, respectively.
Meanwhile, for a normal group, neither the drug nor the vehicle was administered to normal mice. And, for a control group, the vehicle was administered to the mice with dry eye syndrome.

O=C(NC(Cc1cc(=O)[nH]c2ccccc12)C(=O)O)c1ccc(Cl)cc1 (stereo not shown) [Rebamipide, 2-(4-chlorobenzoyl-amino)-3-[2(1H)-quinolon-4-yl]propionic acid]
therapeutic effects on dry eye syndrome: exhibits therapeutic effects on dry eye syndrome
